The values that follow come from patent US20210309669A1, “Heterocyclic Spiro Compounds As MAGL Inhibitors” (Pfizer Inc., priority 2018, published 2021).

In one data set the target is T1, human recombinant FAAH (Homo sapiens, UniProt O00519).
T1 construct: purchased Cayman 10010183
T1 sequence (O00519 1-579): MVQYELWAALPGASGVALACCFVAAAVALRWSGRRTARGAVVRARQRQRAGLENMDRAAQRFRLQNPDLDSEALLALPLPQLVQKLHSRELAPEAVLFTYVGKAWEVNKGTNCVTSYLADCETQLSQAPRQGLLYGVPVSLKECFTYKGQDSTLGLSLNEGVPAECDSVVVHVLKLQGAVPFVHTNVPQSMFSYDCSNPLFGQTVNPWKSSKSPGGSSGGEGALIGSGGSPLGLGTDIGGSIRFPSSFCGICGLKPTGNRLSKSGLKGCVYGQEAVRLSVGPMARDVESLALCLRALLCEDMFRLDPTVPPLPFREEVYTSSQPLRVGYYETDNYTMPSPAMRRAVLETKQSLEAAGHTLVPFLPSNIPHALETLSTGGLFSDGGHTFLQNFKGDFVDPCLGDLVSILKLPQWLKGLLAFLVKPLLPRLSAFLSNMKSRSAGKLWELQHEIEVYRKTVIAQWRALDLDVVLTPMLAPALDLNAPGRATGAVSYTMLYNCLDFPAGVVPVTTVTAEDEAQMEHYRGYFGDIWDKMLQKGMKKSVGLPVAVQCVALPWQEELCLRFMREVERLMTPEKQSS
Kind of data set: FAAH inhibition enzymatic assay (Arachidonoyl-AMC substrate). The class given is biochemical. The note with it: 30 minute incubation; geometric mean; read-out: FAAH (T = 30 min) IC50. The procedure:
Assessment of FAAH inhibition utilizes human recombinant FAAH and the fluorescent substrate, Arachidonoyl-AMC. 400 nL of a test compound at decreasing concentrations was spotted into a 384-well back plate (PerkinElmer, 6007279) using a Labcyte Echo, followed by addition of 10 μl of FAAH enzyme (Cayman 10010183) in assay buffer (50 mM Tris, pH 9.0, 1 mM EDTA, i.e. ethylenediaminetetraacetic acid). After a 30 minute incubation at room temperature, 10 μL of Arachidonyl-AMCA was added in assay buffer with 16% DMSO. […] The reaction was allowed to progress for 60 minutes, after which the plate was read on a Molecular Devices FlexStation reader at an Ex/Em of 355/460. Percent inhibitions were calculated based on controls wells containing either no compound (0% inhibition) or a control compound (e.g., an FAAH inhibitor whose activity is known or was previously reported in the literature, such as one with about 100% inhibition). IC50 values were generated based on a four parameter fit model using ABASE software from IDBS.

The nature of data set [1]: In vitro intrinsic clearance in human hepatocytes. The class given is in vitro ADME. Particulars: 1 μM substrate, human hepatocytes 0.5 million viable cells per mL, 37° C. The procedure: Test Compounds (Example 1-3 and Comparative-Compounds 1-4) were prepared as solutions in DMSO at 3 mM which were then diluted in media containing WEM. The final concentration of DMSO in the incubation was 0.03% (v/v). The in vitro half-life (t½) of each compound was determined in incubations containing substrate (1 μM), human hepatocytes (0.5 million viable cells per mL final concentration) in media containing WEM, 50 mM HEPES buffer (pH 7.4), and 26 mM sodium bicarbonate at 37° C. (all final concentrations) in a 96-well plate. The reaction mixture was pre-warmed at 37° C. for 30 min prior to the initiation of the incubation. The incubation was quenched with acetonitrile containing internal standards at the following time points: 0, 5, 15, 30, 60, 120, and 240 min (individual incubation plates per time point). The samples were vortexed followed by centrifugation. An aliquot of supernatant was transferred to a clean 96-well plate and analyzed by LC/MS-MS using multiple reaction monitoring. For control experiments, hepatocytes were omitted from the incubations.
The hepatocyte t½ (min) was obtained from a log-linear plot of the substrate depletion versus incubation time and was scaled to hepatic intrinsic clearance (CLint,app (μL/min/million cells) using the following equation: […]

Data set [2] is described as follows: Mouse subcutaneous neuropharmacokinetics study. The class given is in vivo, Male C57Bl6 mice. Particulars: male, C57Bl6, mouse, brain (cerebellum homogenate) and plasma, sc, subcutaneous dose of 1 mg/kg, read-out: Mouse Cb,u/Cp,u. As for the experimental part:
The neuropharmacokinetics studies in mouse were conducted at Wuxi (Shanghai, China) with bioanalysis conducted at BioDuro (Beijing, China) with the exception of the Comparative-compound 3, which bioanalysis was conducted at Wuxi. All in vivo studies were conducted in accordance with regulations and established guidelines using protocols reviewed and approved by the Pfizer Worldwide Research and Development (WRD, or other) Institutional Animal Care and Use Committee.
Male C57Bl6 mice were maintained on a 12-h light/dark cycle in a temperature- and humidity-controlled environment with free access to food and water. The test compounds (Examples 1 and 2 and Comparative Compounds 1-3) were administered as a subcutaneous dose of 1 mg/kg which was delivered in a dose volume of 10 mL/kg. The dose solution for all compounds was formulated in 5% DMSO/5% cremophor/90% saline. Blood and brain samples were collected at 0.5, 1, 2, 4, 8, 12, and 24 h post-dose (n=3 per time point). Blood samples were collected into tubes containing sodium fluoride and 4-(2-aminoethyl)benzenesulfonyl fluoride hydrochloride (AEBSF; final concentration 2 mg/mL) to inhibit hydrolase activity and placed on wet ice. Following centrifugation to afford plasma, the samples were transferred to polypropylene tubes and stored frozen at −20° C. to −80° C. until analysis. Immediately following blood collection the mice were euthanized by cervical dislocation and the brains were removed. The cerebellum was immediately frozen in liquid nitrogen and stored at −80° C. until analysis.
Cerebellum samples were thawed, diluted 1:4 (w/v) with water, and homogenized using an H-speed dispersator. Standards and controls were prepared in a similar manner using a brain homogenate prepared from untreated animals. The plasma standard curves were generated with species specific plasma. All plasma and brain homogenate samples were quantified via LC/MS-MS using multiple reaction monitoring with non-validated methods.
Equilibrium dialysis using standard procedures [See Di et al., “Species independence in brain tissue binding using brain homogenates”; Drug Metab Dispos 39:1270-1277, 2011) were used for determination of the unbound fraction of the test compounds (Examples 1 and 2 and Comparative Compounds 1-3) in mouse plasma (fu,p; see Di et al., “impact of recovery on fraction unbound using equilibrium dialysis”; J Pharm Sci 101:1327-1335, 2012) and unbound fraction in rat brain homogenate (fu,b; see Di et al., “Species independence in brain tissue binding using brain homogenates”; Drug Metab Dispos 39:1270-1277, 2011). The determination of the unbound fraction in plasma also included the addition of AEBSF at a final concentration of 2 mg/mL to the incubation.
The pharmacokinetic parameters were computed by non-compartmental analysis using Watson Bioanalytical LIMS version 7.5. The AUC values were calculated using the linear trapezoidal method for both brain and plasma. Measured total plasma (Cp) and brain (Cb; assuming brain tissue density of 1 g/mL) concentrations were converted to unbound (free) values using the matrix specific binding factor (fu, p or fu,b) to determine free plasma (Cp,u) and free brain (Cb,u) values. All neurocompartmental ratios (Cb,u/Cp,u) were calculated through use of AUC values with the exception of Comparative Compounds 1 and 2 which used the mean of individual animal values due to insufficient data to calculate an AUC value.

Some results are limits rather than exact numbers.

Turning to `O=C(OC(C(F)(F)F)C(F)(F)F)N1CCC2(CC1)C[C@@H](NS(=O)(=O)CC1CC1)CO2` [Example 1, 1,1,1,3,3,3-Hexafluoropropan-2-yl (3R)-3-{[(cyclopropylmethyl)sulfonyl]amino}-1-oxa-8-azaspiro[4.5]decane-8-carboxylate], the IC50 at human recombinant FAAH is more than 30 µM. In data set [1], the “HHEPs CLint, app” value is less than 4.26 μL/min/million. Also, the Kp,uu (unbound brain/unbound plasma ratio) in data set [2] came to 1.
For `O=C(OC(C(F)(F)F)C(F)(F)F)N1CCC2(CC1)C[C@@H](NS(=O)(=O)C1CC1)CO2` [Example 2, 1,1,1,3,3,3-Hexafluoropropan-2-yl (3R)-3-[(cyclopropylsulfonyl)amino]-1-oxa-8-azaspiro[4.5]decane-8-carboxylate] the same measures were more than 30 µM, 3.46 μL/min/million and 0.8.
As to `O=C(OC(C(F)(F)F)C(F)(F)F)N1CCC2(CCC(NS(=O)(=O)CC3CC3)CO2)CC1` (centres unmarked) [Example 3, 1,1,1,3,3,3-Hexafluoropropan-2-yl 3-{[(cyclopropylmethyl)sulfonyl]amino}-1-oxa-9-azaspiro[5.5]undecane-9-carboxylate], the half-inhibitory concentration (IC50) on human recombinant FAAH is more than 30 µM. Moreover, in data set [1], the “HHEPs CLint, app” value was less than 3.57 μL/min/million.
